Laboratory results: patent publication US10064848B2, “Pyridic ketone derivatives, method of preparing same, and pharmaceutical application thereof” (Shanghai Hengrui Pharmaceutical Co., Ltd., priority 2013, dated 2018)

Tests used:
Colo205 cell = assay: Proliferation inhibition on Colo205 (CCK8); assay type: cell-based; conditions: Homo sapiens, COLO 205, Colo205, 72 hours
Source text: Cell line used in the assay: Colo205 (Cell Bank of the Chinese Academy of Sciences, Catalog No. TCHu102).
The following in vitro cell assay is to determine the activity of the compounds of the present invention for inhibiting the proliferation of human colon cancer cell, and the activity is expressed as IC50. General programs of this kind of assay were as follows: First, the cell line to be tested (purchased from Cell Bank of the Chinese Academy of Sciences) was inoculated in a 96-well culture plate with a suitable cell concentration of 4000 cells/mL medium, and was cultured in a carbon dioxide incubator at 37° C., then grown overnight. The medium was replaced by new medium added with a series of concentrations (10000 nM, 1000 nM, 100 nM, 10 nM, 1 nM, 0.1 nM) of the test compound solutions. The plates were placed back in the incubator, and continuously cultured for 72 hours. After 72 hours, CCK8 (Cell Counting Kit-8, Catalog No.: CK04, purchased from colleagues chemical company) method was used to determine the proliferation inhibition activity of the test compounds. IC50 values were calculated from the inhibition data of the test compounds at a series of different concentrations.
(§1) The above assay was used to determine the biochemical activity of the compounds of the present invention.

HCT116 cell = assay: Proliferation inhibition on human colon cancer cell HCT116 (CCK8); assay type: cell-based; conditions: HCT-116, HCT116, 72 hours
Source text: The following in vitro cell assay was used to determine the activity of the compounds of the present invention for inhibiting the proliferation of human colon cancer cell, and the activity is expressed as IC50.
Cell line which was used in the experiment: HCT116 (Cell Bank of the Chinese Academy of Sciences, Catalog No. TCHu99).
General programs of this kind of assay were as follows: First, the cell line to be tested was inoculated in a 384-well culture plate with a suitable cell concentration of 1000 cells/well, and was cultured in an incubator under the conditions of 37° C. and 5% CO2, then grown overnight. The medium was replaced by new medium added with a series of concentrations (1000 nM, 250 nM, 62.50 nM, 15.63 nM, 3.91 nM, 0.98 nM, 0.24 nM, 0.06 nM, 0.015 nM, 0.004 nM) of the test compound solutions. The plates were placed back in the incubator, and continuously cultured for 72 hours. After 72 hours, CCK8 (Cell Counting Kit-8, Catalog No.: CK04, purchased from colleagues chemical company) method was used to determine the proliferation inhibition activity of the test compounds. IC50 values were calculated from the inhibition data of the test compounds at a series of different concentrations.
as §1

CYP1A2 = target: T1, CYP1A2 (Homo sapiens, UniProt P05177); assay: In vitro CYP enzyme inhibition, human liver microsomes; assay type: in vitro ADME; conditions: probe Phenacetin, single point method
T1 construct: from tissue; host or cells: human liver microsomes
T1 sequence (P05177 1-516): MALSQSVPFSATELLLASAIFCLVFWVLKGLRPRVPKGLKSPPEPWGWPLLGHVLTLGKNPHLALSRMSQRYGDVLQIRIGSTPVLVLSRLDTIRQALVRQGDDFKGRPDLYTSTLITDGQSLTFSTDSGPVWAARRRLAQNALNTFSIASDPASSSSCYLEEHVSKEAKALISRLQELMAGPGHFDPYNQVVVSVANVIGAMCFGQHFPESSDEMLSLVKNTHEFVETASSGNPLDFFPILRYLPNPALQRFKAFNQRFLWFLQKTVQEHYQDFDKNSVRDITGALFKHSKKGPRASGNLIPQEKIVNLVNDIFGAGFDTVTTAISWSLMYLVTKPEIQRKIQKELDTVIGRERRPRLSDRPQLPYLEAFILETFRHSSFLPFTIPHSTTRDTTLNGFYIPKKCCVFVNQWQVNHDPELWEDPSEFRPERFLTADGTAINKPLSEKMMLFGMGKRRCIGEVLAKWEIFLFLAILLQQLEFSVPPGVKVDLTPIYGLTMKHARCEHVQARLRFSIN
Protocol: (§2) Human liver microsome incubation system was used to reflect the activity of enzymes based on the amount of metabolites produced. Enzyme inhibition of the test compounds was investigated on CYP1A2, CYP2C9, […], CYP3A4m, CYP3A4t and CYP2C19, and IC50 values (a concentration of the test compound that is required for 50% inhibition of enzyme activity) were measured. […] The appropriate amount of test compound standard sample was weighed, and diluted with DMSO to 50 mM to obtain stock solution I. The stock solution I was diluted with PBS to 100 μM to obtain the reaction liquid which is to be used in incubation. [table] The reaction mixture was prepared: 60 μL [table] The above mixture was preincubated for 5 minutes at 37° C., followed by addition of 40 μL of NADPH (2.5 mM, PBS formulation). The mixture solution was incubated for 20 minutes at 37° C. All incubated samples were set to double samples. 300 μL ice-cold acetonitrile was added to terminate the reaction. The reaction solution was added with 100 μl internal standard, mixed uniformly, and centrifuged for 10 minutes at 3500 rpm. The supernatant was transferred to the LC-MS/MS analysis. The activity of enzymes was reflected by the production amount of metabolites. Using a single point method, the formula was calculated as follows: According to the known literature: IC50>10 μM belongs to weaker inhibition, 1 μM<IC50<10 μM belong to moderate inhibition, IC50<1 μM belong to strong inhibition.

CYP2C19 = target: T2, CYP2C19 (Homo sapiens, UniProt P33261); assay: as above; assay type: in vitro ADME; conditions: probe (S)-Mephenytoin, single point method
T2 construct: from tissue; host or cells: human liver microsomes
Protocol: as §2

CYP2C6 = CYP2C6 (Homo sapiens, UniProt P10635); assay: as above; assay type: in vitro ADME; conditions: single point method
Protocol: as §2

CYP2C9 = target: T3, CYP2C9 (Homo sapiens, UniProt P11712); assay: as above; assay type: in vitro ADME; conditions: probe Diclofenac, single point method
T3 construct: from tissue; host or cells: human liver microsomes
Protocol: as §2

CYP3A4m = target: T4, CYP3A4m (Homo sapiens, UniProt P08684); assay: as above; assay type: in vitro ADME; conditions: probe Midazolam, single point method
T4 construct: from tissue; host or cells: human liver microsomes
Protocol: as §2

CYP3A4t = target: T5, CYP3A4t (Homo sapiens, UniProt P08684); assay: as above; assay type: in vitro ADME; conditions: probe Testosterone, single point method
T5 construct: from tissue; host or cells: human liver microsomes
Protocol: as §2

T2 sequence (P33261 whole entry): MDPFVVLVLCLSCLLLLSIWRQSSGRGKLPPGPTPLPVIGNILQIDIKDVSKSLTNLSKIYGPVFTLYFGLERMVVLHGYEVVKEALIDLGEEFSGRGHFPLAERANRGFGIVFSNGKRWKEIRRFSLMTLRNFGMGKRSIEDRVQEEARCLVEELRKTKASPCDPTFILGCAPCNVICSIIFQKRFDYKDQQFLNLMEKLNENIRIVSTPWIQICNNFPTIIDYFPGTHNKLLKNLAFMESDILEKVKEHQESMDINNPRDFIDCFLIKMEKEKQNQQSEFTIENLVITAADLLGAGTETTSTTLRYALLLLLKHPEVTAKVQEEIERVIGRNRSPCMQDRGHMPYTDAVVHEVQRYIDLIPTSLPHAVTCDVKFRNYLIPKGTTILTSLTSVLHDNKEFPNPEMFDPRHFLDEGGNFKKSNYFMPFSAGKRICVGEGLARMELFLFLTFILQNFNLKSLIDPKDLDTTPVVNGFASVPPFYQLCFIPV
T4 sequence (P08684 whole entry): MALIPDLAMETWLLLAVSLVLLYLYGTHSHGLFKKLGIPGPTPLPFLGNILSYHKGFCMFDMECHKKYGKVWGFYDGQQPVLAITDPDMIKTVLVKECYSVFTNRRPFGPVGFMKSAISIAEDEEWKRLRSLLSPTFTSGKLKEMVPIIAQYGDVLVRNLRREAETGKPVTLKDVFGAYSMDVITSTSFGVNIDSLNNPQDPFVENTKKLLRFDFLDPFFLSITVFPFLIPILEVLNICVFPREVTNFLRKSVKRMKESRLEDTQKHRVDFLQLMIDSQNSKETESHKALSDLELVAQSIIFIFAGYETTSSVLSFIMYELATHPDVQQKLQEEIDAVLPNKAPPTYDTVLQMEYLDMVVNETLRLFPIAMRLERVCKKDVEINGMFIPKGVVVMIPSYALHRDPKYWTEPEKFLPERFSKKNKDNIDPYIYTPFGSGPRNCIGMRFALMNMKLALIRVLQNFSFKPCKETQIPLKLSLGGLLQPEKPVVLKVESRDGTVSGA
T5 sequence (P08684 whole entry): as above
T3 sequence (P11712 whole entry): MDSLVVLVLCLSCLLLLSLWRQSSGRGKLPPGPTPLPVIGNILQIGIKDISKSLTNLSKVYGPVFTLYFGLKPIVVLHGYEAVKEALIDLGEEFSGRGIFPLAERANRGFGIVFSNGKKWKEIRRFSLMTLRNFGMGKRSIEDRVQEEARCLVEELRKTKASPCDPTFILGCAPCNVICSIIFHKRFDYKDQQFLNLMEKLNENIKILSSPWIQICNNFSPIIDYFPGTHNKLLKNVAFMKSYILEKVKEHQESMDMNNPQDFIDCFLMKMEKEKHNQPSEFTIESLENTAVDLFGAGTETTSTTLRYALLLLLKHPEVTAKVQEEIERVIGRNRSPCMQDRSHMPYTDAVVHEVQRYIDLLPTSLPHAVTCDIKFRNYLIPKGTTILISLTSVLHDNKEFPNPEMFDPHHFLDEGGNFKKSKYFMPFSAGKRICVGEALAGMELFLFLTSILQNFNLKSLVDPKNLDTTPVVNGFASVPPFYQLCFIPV
Sequence of CYP2C6 (P10635 whole entry): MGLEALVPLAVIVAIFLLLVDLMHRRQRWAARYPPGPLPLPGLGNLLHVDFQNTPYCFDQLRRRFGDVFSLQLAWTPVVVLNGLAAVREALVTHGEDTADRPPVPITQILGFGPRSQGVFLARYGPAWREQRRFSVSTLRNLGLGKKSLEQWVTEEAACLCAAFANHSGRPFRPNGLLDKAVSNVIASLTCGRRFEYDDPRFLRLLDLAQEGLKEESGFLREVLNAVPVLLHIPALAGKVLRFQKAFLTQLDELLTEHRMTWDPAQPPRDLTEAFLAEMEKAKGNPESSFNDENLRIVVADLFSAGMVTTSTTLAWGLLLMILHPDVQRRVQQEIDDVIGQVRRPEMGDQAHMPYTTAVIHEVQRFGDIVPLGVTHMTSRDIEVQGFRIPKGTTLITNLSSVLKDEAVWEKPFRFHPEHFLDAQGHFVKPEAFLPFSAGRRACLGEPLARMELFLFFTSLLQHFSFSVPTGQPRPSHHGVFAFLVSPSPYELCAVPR

Structure (SMILES)	IC50 (Colo205 cell) [pM]	IC50 (HCT116 cell) [nM]	IC50 (CYP1A2) [µM]	IC50 (CYP2C19) [µM]	IC50 (CYP2C6) [µM]	IC50 (CYP2C9) [µM]	IC50 (CYP3A4m) [µM]	IC50 (CYP3A4t) [µM]
Cc1c(F)cccc1Oc1cc(=O)n(C)c(Nc2ccc(I)cc2F)c1C(N)=O [Example 1, 4-(3-fluoro-2-methylphenoxy)-2-((2-fluoro-4-iodophenyl)amino)-1-methyl-6-oxo-1,6-dihydropyridine-3-carboxamide]	700	8.6	> 10	> 10	> 10	> 10	> 10	> 10
CCS(=O)(=O)Nc1cccc(Oc2cc(=O)n(C)c(Nc3ccc(I)cc3F)c2C(N)=O)c1C [Example 3, 4-(3-(ethylsulfonamido)-2-methylphenoxy)-2-((2-fluoro-4-iodophenyl)amino)-1-methyl-6-oxo-1,6-dihydropyridine-3-carboxamide]	40	0.06	> 50	> 10	> 50	> 50	> 50	> 50
Cc1cc(F)ccc1Oc1cc(=O)n(C)c(Nc2ccc(I)cc2F)c1C(N)=O [Example 22, 4-(4-fluoro-2-methylphenoxy)-2-((2-fluoro-4-iodophenyl)amino)-1-methyl-6-oxo-1,6-dihydropyridine-3-carboxamide]	6100	10.3	> 10	> 10	> 10	> 10	> 10	> 10

Continued, values first:

IC50 (Colo205 cell) [pM]	IC50 (HCT116 cell) [nM]	IC50 (CYP1A2) [µM]	IC50 (CYP2C19) [µM]	IC50 (CYP2C6) [µM]	IC50 (CYP2C9) [µM]	IC50 (CYP3A4m) [µM]	IC50 (CYP3A4t) [µM]	Structure (SMILES)
800	8.9	> 10	> 10	> 10	> 10	> 10	> 10	Cc1ncccc1Oc1cc(=O)n(C)c(Nc2ccc(I)cc2F)c1C(N)=O [Example 29, 2-((2-fluoro-4-iodophenyl)amino)-1-methyl-4-((2-methylpyridin-3-yl)oxy)-6-oxo-1,6-dihydropyridine-3-carboxamide]
3600	36.4	> 10	> 10	> 10	> 10	> 10	> 10	Cc1ccc(Oc2cc(=O)n(C)c(Nc3ccc(I)cc3F)c2C(N)=O)cn1 [Example 31, 2-((2-fluoro-4-iodophenyl)amino)-1-methyl-4-((6-methylpyridin-3-yl)oxy)-6-oxo-1,6-dihydropyridine-3-carboxamide]
